This note sets out measurements from paper PMC9067983, “Identification of highly selective type II kinase inhibitors with chiral peptidomimetic tails” (Journal of Enzyme Inhibition and Medicinal Chemistry, 2022).

In general, IC50 refers to the midpoint of a concentration-inhibition curve. A low value points to greater potency in that assay.

Where a SMILES comes first, the peptide text is derived from it. [ ]: non-standard residue; d: D form. The star is where a group is joined. X1 = Cc1ccc(Nc2ncc3c(n2)N(C)C(=O)N(c2cc(C(=O)*)ccc2C)C3)cn1; Ac4c = NC1(C(=O)O)CCC1; Ac3c = NC1(C(=O)O)CC1; Aib = CC(C)(N)C(=O)O

One experiment concerns the target T1, c-Src (Homo sapiens, UniProt P12931).
T1 construct: purchased Reaction Biology Corp
As to the kind of experiment: In vitro kinase assay (IC50). It is filed as biochemical. On the procedure: (§1) Full panel kinase profiling and kinase IC50 measurement were performed by using Reaction Biology Corp. (San Diego, USA).

The next experiment concerns the target T2, Lck (Homo sapiens, UniProt P06239).
T2 construct: purchased Reaction Biology Corp
As to the kind of experiment: In vitro kinase assay (IC50). In kind it is biochemical. Here is the method:
as §1

T1 sequence (P12931 whole entry): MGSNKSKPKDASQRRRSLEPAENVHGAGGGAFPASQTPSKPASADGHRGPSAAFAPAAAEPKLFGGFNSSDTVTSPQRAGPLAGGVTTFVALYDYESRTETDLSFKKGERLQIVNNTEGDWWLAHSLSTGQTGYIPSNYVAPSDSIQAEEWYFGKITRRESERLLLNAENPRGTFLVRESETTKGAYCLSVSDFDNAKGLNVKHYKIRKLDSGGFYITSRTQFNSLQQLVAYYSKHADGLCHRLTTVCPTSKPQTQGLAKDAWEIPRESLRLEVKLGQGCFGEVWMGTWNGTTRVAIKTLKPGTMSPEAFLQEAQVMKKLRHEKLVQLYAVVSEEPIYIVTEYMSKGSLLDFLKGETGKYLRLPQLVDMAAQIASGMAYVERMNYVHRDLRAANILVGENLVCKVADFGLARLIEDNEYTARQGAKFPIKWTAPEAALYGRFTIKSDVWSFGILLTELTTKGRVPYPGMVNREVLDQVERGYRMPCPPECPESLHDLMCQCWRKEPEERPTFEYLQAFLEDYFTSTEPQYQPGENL
T2 sequence (P06239 whole entry): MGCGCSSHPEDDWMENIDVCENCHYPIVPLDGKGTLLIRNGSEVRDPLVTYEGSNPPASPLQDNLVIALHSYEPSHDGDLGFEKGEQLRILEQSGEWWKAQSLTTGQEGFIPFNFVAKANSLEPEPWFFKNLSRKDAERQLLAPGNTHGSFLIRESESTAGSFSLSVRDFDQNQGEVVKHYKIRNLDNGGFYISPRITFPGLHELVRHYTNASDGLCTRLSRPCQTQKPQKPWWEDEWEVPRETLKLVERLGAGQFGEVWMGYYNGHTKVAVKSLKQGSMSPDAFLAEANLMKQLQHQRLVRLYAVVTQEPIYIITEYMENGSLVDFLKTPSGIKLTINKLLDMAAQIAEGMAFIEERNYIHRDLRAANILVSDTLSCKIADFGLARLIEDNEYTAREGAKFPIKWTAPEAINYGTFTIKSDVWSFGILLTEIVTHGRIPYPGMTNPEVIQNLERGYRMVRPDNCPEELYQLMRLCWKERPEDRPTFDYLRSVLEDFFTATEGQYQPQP

Take `Cc1ccc(Nc2ncc3c(n2)N(C)C(=O)N(c2cc(C(=O)N[C@@H](C(=O)N4CCC[C@@H]4C(=O)NC(C)(C)C(=O)N[C@H](CC(C)C)C(=O)N(C)C)C(C)C)ccc2C)C3)cn1` [7c, (R)-N-(1-(((R)-1-(dimethylamino)-4-methyl-1-oxopentan-2-yl)amino)-2-methyl-1-oxopropan-2-yl)-1-((4-methyl-3-(1-methyl-7-((6-methylpyridin-3-yl)amino)-2-oxo-1,4-dihydropyrimido[4,5-d]pyrimidin-3(2H)-yl)benzoyl)-D-valyl)pyrrolidine-2-carboxamide] (X1-[dV][dP][Aib][dL]-NMe2): the IC50 against c-Src turned out to be 735 nM; against Lck, 211 nM. In addition, the “decrease of Lck/c-Src selectivity compared to 7a” value at Lck is given as > 10 fold.
For the molecule `Cc1ccc(Nc2ncc3c(n2)N(C)C(=O)N(c2cc(C(=O)N[C@H](C(=O)N4CCC[C@H]4C(=O)NC4(C(=O)N[C@@H](CC(C)C)C(=O)N(C)C)CC4)C(C)C)ccc2C)C3)cn1` [7d, (S)-N-(1-(((S)-1-(dimethylamino)-4-methyl-1-oxopentan-2-yl)carbamoyl)cyclopropyl)-1-((4-methyl-3-(1-methyl-7-((6-methylpyridin-3-yl)amino)-2-oxo-1,4-dihydropyrimido[4,5-d]pyrimidin-3(2H)-yl)benzoyl)-L-valyl)pyrrolidine-2-carboxamide] (X1-VP[Ac3c]L-NMe2), the figures for the IC50 at c-Src and on Lck were 555 nM and 49 nM, respectively.
In the case of `Cc1ccc(Nc2ncc3c(n2)N(C)C(=O)N(c2cc(C(=O)N[C@H](C(=O)N4CCC[C@@H]4C(=O)NC4(C(=O)N[C@@H](CC(C)C)C(=O)N(C)C)CC4)C(C)C)ccc2C)C3)cn1` [7e, (R)-N-(1-(((S)-1-(dimethylamino)-4-methyl-1-oxopentan-2-yl)carbamoyl)cyclopropyl)-1-((4-methyl-3-(1-methyl-7-((6-methylpyridin-3-yl)amino)-2-oxo-1,4-dihydropyrimido[4,5-d]pyrimidin-3(2H)-yl)benzoyl)-L-valyl)pyrrolidine-2-carboxamide] (X1-V[dP][Ac3c]L-NMe2), the IC50 turned out to be 2080 nM against c-Src and 129 nM against Lck.
For `Cc1ccc(Nc2ncc3c(n2)N(C)C(=O)N(c2cc(C(=O)N[C@H](C(=O)N4CCC[C@H]4C(=O)NC4(C(=O)N[C@@H](CC(C)C)C(=O)N(C)C)CCC4)C(C)C)ccc2C)C3)cn1` [7f, (S)-N-(1-(((S)-1-(dimethylamino)-4-methyl-1-oxopentan-2-yl)carbamoyl)cyclobutyl)-1-((4-methyl-3-(1-methyl-7-((6-methylpyridin-3-yl)amino)-2-oxo-1,4-dihydropyrimido[4,5-d]pyrimidin-3(2H)-yl)benzoyl)-L-valyl)pyrrolidine-2-carboxamide] (X1-VP[Ac4c]L-NMe2) the same measures were 658 nM and 27.5 nM.
For `Cc1ccc(Nc2ncc3c(n2)N(C)C(=O)N(c2cc(C(=O)N[C@H](C(=O)N4CCC[C@H]4C(=O)NCC(=O)N[C@@H](CC(C)C)C(=O)N(C)C)C(C)C)ccc2C)C3)cn1` [7g, (S)-N-(2-(((S)-1-(dimethylamino)-4-methyl-1-oxopentan-2-yl)amino)-2-oxoethyl)-1-((4-methyl-3-(1-methyl-7-((6-methylpyridin-3-yl)amino)-2-oxo-1,4-dihydropyrimido[4,5-d]pyrimidin-3(2H)-yl)benzoyl)-L-valyl)pyrrolidine-2-carboxamide] (X1-VPGL-NMe2) the same measures were 1370 nM and 40.2 nM.
For the molecule `Cc1ccc(Nc2ncc3c(n2)N(C)C(=O)N(c2cc(C(=O)N[C@H](C(=O)N4CCC[C@@H]4C(=O)NCC(=O)N[C@@H](CC(C)C)C(=O)N(C)C)C(C)C)ccc2C)C3)cn1` [7h, (R)-N-(2-(((S)-1-(dimethylamino)-4-methyl-1-oxopentan-2-yl)amino)-2-oxoethyl)-1-((4-methyl-3-(1-methyl-7-((6-methylpyridin-3-yl)amino)-2-oxo-1,4-dihydropyrimido[4,5-d]pyrimidin-3(2H)-yl)benzoyl)-L-valyl)pyrrolidine-2-carboxamide] (X1-V[dP]GL-NMe2), the 50% inhibitory concentration (IC50) against c-Src came to 1740 nM; against Lck, 64.4 nM.
